Results on twelve compounds are retold here after US7879881B2, “Piperidinyl compounds that selectively bind integrins” (Janssen Pharmaceutica NV, priority 2002, dated 2011).

Read-outs that look alike come from different tables or passages of the source.

One experiment concerns the target T1, Human αvβ3 (Homo sapiens, UniProt P05106+P06756).
T1 construct: purchased Chemicon International Inc., Temecula, Calif
The experiment can be described thus: In Vitro Solid Phase Purified αvβ3 Binding Assay (vitronectin/αvβ3). As to conditions: vitronectin binding to immobilized purified human αvβ3, mean ± spread. The procedure, abridged:
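Purified human αvβ3 immobilized at 1 μg/ml in Tris buffer with Ca, Mg and Mn; compounds competed with 2 nM vitronectin for 3 h at 37 °C. Bound vitronectin detected by anti-vitronectin antibody and peroxidase ABC, absorbance at 490 nm.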

For another experiment, the target named is GP IIb/IIIa (Homo sapiens, UniProt P05106+P08514). The experiment can be described thus: In Vitro Solid Phase Purified GP IIb/IIIa Binding Assay (biotinylated fibrinogen). As to conditions: biotinylated fibrinogen binding to immobilized purified GP IIb/IIIa; mean ± spread; read-out: αIIbβ3 IC50. In outline:
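Purified GP IIb/IIIa coated overnight at 4° C, blocked with 5% BSA, then incubated with test compound and biotinylated fibrinogen for 2-4 h at RT in modified Tyrodes buffer. Bound fibrinogen detected with avidin-biotin HRP complex and o-phenylenediamine/H2O2 (citrate/phosphate pH 5.3), stopped with 2 N H2SO4.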

The next experiment addresses T2, human purified αVβ5 (Homo sapiens, UniProt P06756+P18084).
T2 construct: purchased Chemicon International, Inc
The experiment can be described thus: In Vitro Solid Phase Purified αcβ5 Binding Assay (vitronectin/αVβ5). As to conditions: vitronectin binding to immobilized purified human αVβ5, mean ± spread. In outline: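 Purified human integrin immobilized at 1 μg/ml in Tris buffer with Ca2+, Mg2+, Mn2+ and NaCl, then BSA-blocked. Compounds added just before 2 nM vitronectin, 3 h at 37 °C. Bound vitronectin detected by anti-vitronectin antibody with biotin/peroxidase (ABC) detection at 490 nm.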

GP IIb/IIIa, sequence (P08514 32-887 limits assumed): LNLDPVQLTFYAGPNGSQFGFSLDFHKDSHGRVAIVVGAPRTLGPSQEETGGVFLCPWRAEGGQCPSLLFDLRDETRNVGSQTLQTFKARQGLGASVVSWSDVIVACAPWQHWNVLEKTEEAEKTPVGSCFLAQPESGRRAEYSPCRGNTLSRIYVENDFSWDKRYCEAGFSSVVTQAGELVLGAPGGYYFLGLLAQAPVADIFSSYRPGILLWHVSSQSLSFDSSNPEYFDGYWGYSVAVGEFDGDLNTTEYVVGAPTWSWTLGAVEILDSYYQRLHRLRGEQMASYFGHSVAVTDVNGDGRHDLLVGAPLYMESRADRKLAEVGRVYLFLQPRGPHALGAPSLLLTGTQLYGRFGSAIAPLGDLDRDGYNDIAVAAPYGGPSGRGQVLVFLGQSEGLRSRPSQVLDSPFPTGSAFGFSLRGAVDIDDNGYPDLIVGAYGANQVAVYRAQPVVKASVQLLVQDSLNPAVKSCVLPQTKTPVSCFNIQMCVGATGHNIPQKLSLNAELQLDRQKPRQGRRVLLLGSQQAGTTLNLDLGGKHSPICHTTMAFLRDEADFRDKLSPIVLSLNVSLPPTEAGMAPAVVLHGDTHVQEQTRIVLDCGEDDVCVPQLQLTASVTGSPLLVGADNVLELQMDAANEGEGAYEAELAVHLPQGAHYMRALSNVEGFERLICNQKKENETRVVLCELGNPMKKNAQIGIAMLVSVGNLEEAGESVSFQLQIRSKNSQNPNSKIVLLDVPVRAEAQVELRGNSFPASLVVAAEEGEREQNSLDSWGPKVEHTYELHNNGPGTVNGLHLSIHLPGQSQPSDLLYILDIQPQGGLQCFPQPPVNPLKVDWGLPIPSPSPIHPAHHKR
GP IIb/IIIa, sequence (P08514 891-1039 partner limits assumed): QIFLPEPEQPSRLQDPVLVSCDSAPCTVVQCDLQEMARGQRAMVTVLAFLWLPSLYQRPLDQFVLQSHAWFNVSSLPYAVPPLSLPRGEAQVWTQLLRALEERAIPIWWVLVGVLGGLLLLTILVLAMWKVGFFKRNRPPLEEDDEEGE
GP IIb/IIIa, sequence (P05106 27-788): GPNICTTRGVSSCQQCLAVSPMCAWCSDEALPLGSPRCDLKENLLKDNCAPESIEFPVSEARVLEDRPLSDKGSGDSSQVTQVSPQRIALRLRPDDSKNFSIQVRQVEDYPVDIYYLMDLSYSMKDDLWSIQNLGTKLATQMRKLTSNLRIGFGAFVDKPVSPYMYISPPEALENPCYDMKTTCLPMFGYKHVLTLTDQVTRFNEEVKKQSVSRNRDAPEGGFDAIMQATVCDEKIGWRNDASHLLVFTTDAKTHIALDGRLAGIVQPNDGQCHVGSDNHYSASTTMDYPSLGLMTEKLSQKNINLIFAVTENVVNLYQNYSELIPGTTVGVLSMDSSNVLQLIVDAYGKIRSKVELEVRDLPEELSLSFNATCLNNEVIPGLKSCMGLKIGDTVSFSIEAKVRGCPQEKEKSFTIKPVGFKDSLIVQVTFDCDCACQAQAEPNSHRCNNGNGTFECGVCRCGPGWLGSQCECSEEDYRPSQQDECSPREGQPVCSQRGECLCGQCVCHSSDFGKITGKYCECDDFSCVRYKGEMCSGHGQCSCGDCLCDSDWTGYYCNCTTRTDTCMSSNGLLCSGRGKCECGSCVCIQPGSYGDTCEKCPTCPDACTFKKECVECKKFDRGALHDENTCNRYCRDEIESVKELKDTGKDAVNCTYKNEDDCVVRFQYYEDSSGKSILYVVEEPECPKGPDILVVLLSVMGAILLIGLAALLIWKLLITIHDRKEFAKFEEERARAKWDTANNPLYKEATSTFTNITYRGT
T2 sequence (P06756 31-889 limits assumed): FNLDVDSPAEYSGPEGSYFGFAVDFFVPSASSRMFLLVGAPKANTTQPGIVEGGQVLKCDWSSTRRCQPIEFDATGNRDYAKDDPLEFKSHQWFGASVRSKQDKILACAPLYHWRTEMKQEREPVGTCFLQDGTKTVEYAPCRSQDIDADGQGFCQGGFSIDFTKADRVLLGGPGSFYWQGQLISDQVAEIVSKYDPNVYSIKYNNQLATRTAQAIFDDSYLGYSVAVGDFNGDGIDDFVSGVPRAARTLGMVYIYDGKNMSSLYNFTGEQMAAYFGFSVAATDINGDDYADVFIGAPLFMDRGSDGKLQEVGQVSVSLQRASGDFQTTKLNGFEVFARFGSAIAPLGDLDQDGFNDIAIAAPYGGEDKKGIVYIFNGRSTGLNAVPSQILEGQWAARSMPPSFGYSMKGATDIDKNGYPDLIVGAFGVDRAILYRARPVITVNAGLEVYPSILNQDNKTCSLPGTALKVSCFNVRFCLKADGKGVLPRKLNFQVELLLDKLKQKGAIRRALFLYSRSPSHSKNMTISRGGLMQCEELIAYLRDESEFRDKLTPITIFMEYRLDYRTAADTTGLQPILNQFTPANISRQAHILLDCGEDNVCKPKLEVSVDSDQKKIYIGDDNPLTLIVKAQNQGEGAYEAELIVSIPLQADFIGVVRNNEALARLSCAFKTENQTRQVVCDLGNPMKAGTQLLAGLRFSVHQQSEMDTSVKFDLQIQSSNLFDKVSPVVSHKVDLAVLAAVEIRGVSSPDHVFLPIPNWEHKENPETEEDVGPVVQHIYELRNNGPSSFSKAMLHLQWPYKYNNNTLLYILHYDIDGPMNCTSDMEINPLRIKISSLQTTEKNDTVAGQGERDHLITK
T2 sequence (P06756 891-1048 partner limits assumed): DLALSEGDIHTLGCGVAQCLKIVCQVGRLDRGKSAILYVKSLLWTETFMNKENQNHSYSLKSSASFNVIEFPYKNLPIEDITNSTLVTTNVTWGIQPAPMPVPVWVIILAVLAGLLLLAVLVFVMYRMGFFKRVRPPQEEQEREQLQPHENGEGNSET
T2 sequence (P18084 24-799): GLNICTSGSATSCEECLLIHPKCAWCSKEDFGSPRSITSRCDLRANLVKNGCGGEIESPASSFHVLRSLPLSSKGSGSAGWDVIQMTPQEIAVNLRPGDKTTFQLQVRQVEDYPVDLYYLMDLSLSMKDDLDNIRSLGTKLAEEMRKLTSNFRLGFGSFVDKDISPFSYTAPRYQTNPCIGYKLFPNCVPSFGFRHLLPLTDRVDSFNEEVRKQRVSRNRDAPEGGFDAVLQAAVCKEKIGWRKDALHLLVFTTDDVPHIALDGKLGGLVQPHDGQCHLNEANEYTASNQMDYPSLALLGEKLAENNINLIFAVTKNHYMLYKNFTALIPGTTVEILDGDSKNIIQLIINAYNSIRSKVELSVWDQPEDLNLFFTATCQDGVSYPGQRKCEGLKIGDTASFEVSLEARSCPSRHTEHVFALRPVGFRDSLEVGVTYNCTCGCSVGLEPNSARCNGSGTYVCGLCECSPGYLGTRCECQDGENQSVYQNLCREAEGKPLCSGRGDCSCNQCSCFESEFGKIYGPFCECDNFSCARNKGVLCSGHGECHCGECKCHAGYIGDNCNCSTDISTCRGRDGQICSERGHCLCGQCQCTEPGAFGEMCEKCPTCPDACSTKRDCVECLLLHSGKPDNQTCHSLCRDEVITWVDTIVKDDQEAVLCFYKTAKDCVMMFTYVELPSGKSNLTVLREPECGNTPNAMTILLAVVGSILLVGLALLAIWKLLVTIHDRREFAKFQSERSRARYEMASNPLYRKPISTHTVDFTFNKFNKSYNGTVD
T1 sequence (P06756 31-889 limits assumed): as the sequence (P06756 31-889 limits assumed) above
T1 sequence (P06756 891-1048 partner limits assumed): as the sequence (P06756 891-1048 partner limits assumed) above
T1 sequence (P05106 27-788): as the sequence (P05106 27-788) above

For the compound `Cc1ncc(C(CC(=O)O)CC2CCN(C(=O)CCc3ccc4c(n3)NCCC4)CC2)cn1` (stereo not drawn) [Cpd 35, 2-methyl-β-[[1-[1-oxo-3-(5,6,7,8-tetrahydro-1,8-naphthyridin-2-yl)propyl]-4-piperidinyl]methyl]-5-pyrimidinepropanoic acid], the results for the IC50 at Human αvβ3 (read-out: αvβ3IC50), at GP IIb/IIIa and on human purified αVβ5 (read-out: αvβ5 IC50) were 0.0007 ± 0.0004 µM, 965 ± 70 nM and 0.0007 ± 0.0002 µM, respectively.

As to `O=C(O)CC(CCC1CCN(C(=O)c2cccc(NC3=NCCCC3)c2)CC1)c1ccc2c(c1)OCO2` (stereo not drawn) [Cpd 53, β-(1,3-benzodioxol-5-yl)-1-[3-[(3,4,5,6-tetrahydro-2-pyridinyl)amino]benzoyl]-4-piperidinepentanoic acid], the values for the IC50 on Human αvβ3 (read-out: αvβ3IC50), at GP IIb/IIIa and on human purified αVβ5 (read-out: αvβ5 IC50) were 0.0298 ± 0.0137 µM, 940 ± 50 nM and 0.138 ± 0.0415 µM, respectively.

Consider `O=C(O)CC(CC1CCN(C(=O)CCc2ccc3c(n2)NCCC3)CC1)c1ccc2ccccc2c1` (single isomer, unassigned) [Cpd 56a, 3-Naphthalen-2-yl-4-[1-(3-5,6,7,8-tetrahydro-[1,8]naphthyridin-2-yl-propionyl)-piperidin-4-yl]-butyric acid], for which the IC50 was 0.0005 ± 0.0002 µM at Human αvβ3 (read-out: αvβ3IC50), 14700 nM at GP IIb/IIIa and 0.0265 ± 0.0034 µM at human purified αVβ5 (read-out: αvβ5 IC50).

As for `O=C(O)CC(CC1CCN(CCCc2ccc3c(n2)NCCC3)CC1)c1cccc(F)c1` (racemic) [Cpd 81, 3-(3-Fluoro-phenyl)-4-[1-(3-5,6,7,8-tetrahydro-[1,8]naphthyridin-2-yl-propyl]-piperidin-4-yl]-butyric acid], the IC50 at Human αvβ3 (read-out: αvβ3IC50) was 0.0067 ± 0.0002 µM; on GP IIb/IIIa, 22700 nM; at human purified αVβ5 (read-out: αvβ5 IC50), 0.0101 ± 0.0017 µM.

As to `CN(C)c1cccc(C(CC(=O)O)CC2CCN(C(=O)CCc3ccc4c(n3)NCCC4)CC2)c1` (racemic) [Cpd 75], the IC50 at Human αvβ3 (read-out: αvβ3IC50) is 0.0053 ± 0.001 µM; on GP IIb/IIIa, > 50000 nM; at human purified αVβ5 (read-out: αvβ5 IC50) it was 0.0419 ± 0.0052 µM.

As for `O=C(O)CC(CCC1CCN(C(=O)CCc2ccc3c(n2)NCCC3)CC1)c1cnc2ccccc2c1` (stereo not drawn) [Cpd 51, β-[2-[1-[1-oxo-3-(5,6,7,8-tetrahydro-1,8-naphthyridin-2-yl)propyl]-4-piperidinyl]ethyl]-3-quinolinepropanoic acid], the figures for the IC50 at Human αvβ3 (read-out: αvβ3IC50), on GP IIb/IIIa and on human purified αVβ5 (read-out: αvβ5 IC50) were 0.003 ± 0.0006 µM, 480 ± 10 nM and 0.169 ± 0.019 µM, respectively.

With `O=C(O)CC(c1ccc2c(c1)OCO2)C1CCN(C(=O)CCc2ccc3c(n2)NCCC3)CC1` (stereo not drawn) [Cpd 14, β-(1,3-benzodioxol-5-yl)-1-[1-oxo-3-(5,6,7,8-tetrahydro-1,8-naphthyridin-2-yl)propyl]-4-piperidinepropanoic acid], the IC50 was 0.0361 ± 0.0001 µM at Human αvβ3 (read-out: αvβ3IC50), 5040 nM at GP IIb/IIIa and 0.108 ± 0.034 µM on human purified αVβ5 (read-out: αvβ5 IC50).

In the case of `COc1ccc(C(CCC2CCN(C(=O)CCCNc3ccccn3)CC2)CC(=O)O)cn1` (stereo not drawn) [Cpd 25, 6-methoxy-β-[2-[1-[1-oxo-4-(2-pyridinylamino)butyl]-4-piperidinyl]ethyl]-3-pyridinepropanoic acid], the IC50 on Human αvβ3 (read-out: αvβ3IC50) worked out at 0.0456 ± 0.0066 µM; on GP IIb/IIIa, 8670 ± 1720 nM; at human purified αVβ5 (read-out: αvβ5 IC50), 0.773 ± 0.118 µM.

On to `CN1CC(C(CC(=O)O)CC2CCN(C(=O)CCc3ccc4c(n3)NCCC4)CC2)Cc2ccccc21` (racemic) [Cpd 67, N-Methyl-1,2,3,4-tetrahydro-β-[[1-[1-oxo-3-(5,6,7,8-tetrahydro-1,8-naphthyridin-2-yl)propyl]-4-piperidinyl]methyl]-3-quinolinepropanoic acid], for which the figures for the IC50 at Human αvβ3 (αvβ3IC50 (uM)), on GP IIb/IIIa and on human purified αVβ5 (αvβ5 IC50 (uM)) were 0.048 ± 0.003 µM, 7820 nM and 0.176 ± 0.035 µM, respectively.

As to `O=C(O)CC(CC1CCN(C(=O)CCc2ccc3c(n2)NCCC3)CC1)C1CCOC1` (racemic) [Cpd 62], the IC50 at Human αvβ3 (read-out: αvβ3IC50) was 0.09 ± 0.002 µM; on GP IIb/IIIa, > 50000 nM; on human purified αVβ5 (read-out: αvβ5 IC50) it was 0.17 ± 0.081 µM.

In the case of `COc1ccc(C(CCC2CCN(C(=O)CCc3ccc4c(n3)NCCC4)CC2)CC(=O)O)cn1` (stereo not drawn) [Cpd 21, 6-methoxy-β-[2-[1-[1-oxo-3-(5,6,7,8-tetrahydro-1,8-naphthyridin-2-yl)propyl]-4-piperidinyl]ethyl]-3-pyridinepropanoic acid], the IC50 on Human αvβ3 (read-out: αvβ3IC50) was 0.028 ± 0.0031 µM; at GP IIb/IIIa, 1800 ± 630 nM; at human purified αVβ5 (read-out: αvβ5 IC50) it was 0.78 µM.

Take “β-[2-[1-[1-oxo-3-(5,6,7,8-tetrahydro-1,8-naphthyridin-2-yl)propyl]-4-piperidinyl]ethyl]-3-quinolinepropanoic acid [Cpd 52]”: the IC50 on Human αvβ3 (read-out: αvβ3IC50) is 0.0064 ± 0.0014 µM; on GP IIb/IIIa it was 570 ± 40 nM; at human purified αVβ5 (read-out: αvβ5 IC50) it was > 50 µM.
